What all share (format): in vivo
Assay [1] has as its system ABUTH Abutilon theophrasti. As to the kind of experiment: Post-emergence crop and weed test (Example 15). To be noted: 360 h, after 15 days, read-out: Percentage damage ABUTH. The method, then: (§1) Seeds of crop and representative weed species were sown in standard soil in pots. After cultivation for 14 days under controlled conditions in a glasshouse (at 22/16° C., day/night; 16 hours light; 65% humidity), the plants were sprayed. The spray solution was prepared by dissolving the technical active ingredient in acetone containing 10.56 wt % Emulsogen EL, 42.22 wt % N-methylpyrrolidone and 2.22 wt % DPG-monoethyl ether to give a 5% stock solution. This was then diluted with water containing 0.2% (v/v) of the adjuvant X-77 to give the desired treatment concentration.
(§2) The test plants were then grown on under controlled conditions in a glasshouse (at 22/16° C., day/night; 16 hours light; 65% humidity) and watered twice daily. After 15 days the test was evaluated (100 =total damage to plant; 0 =no damage to plant).

For assay [2], the system named is AMARE Amaranthus retroflexus. As to the kind of experiment: Post-emergence crop and weed test (Example 15). To be noted: 360 h, after 15 days, read-out: Percentage damage AMARE. The procedure: as §1, §2
The next assay has as its system CHEAL Chenopodium album. As to the kind of experiment: Post-emergence crop and weed test (Example 15). The note with it: 360 h, after 15 days, read-out: Percentage damage CHEAL. The method, then:
as §1, §2

Assay [3] concerns EPHHL Euphorbia heterophylla. As to the kind of experiment: Post-emergence crop and weed test (Example 15). The note with it: 360 h, after 15 days, read-out: Percentage damage EPHHL. The procedure: as §1, §2
Another assay concerns GLXMA Soybean. As to the kind of experiment: Post-emergence crop and weed test (Example 15). To be noted: Glycine max, 360 h, after 15 days, read-out: Percentage damage GLXMA. The procedure: as §1, §2
The test system of the next assay is IPOHE Ipomoea hederacea. As to the kind of experiment: Post-emergence crop and weed test (Example 15). To be noted: 360 h, after 15 days, read-out: Percentage damage IPOHE. The procedure: as §1, §2
A further assay relates to KCHSC Kochia scoparia. As to the kind of experiment: Post-emergence crop and weed test (Example 15). The note with it: Bassia scoparia, 360 h, after 15 days, read-out: Percentage damage KCHSC. The method, then:
as §1, §2

Assay [4] concerns POLCO Polygonum convolvulus. As to the kind of experiment: Post-emergence crop and weed test (Example 15). The note with it: Fallopia convolvulus, 360 h, after 15 days, read-out: Percentage damage POLCO. The procedure:
as §1, §2

The test system of another assay is SIDSP Sida spinosa. As to the kind of experiment: Post-emergence crop and weed test (Example 15). To be noted: 360 h, after 15 days, read-out: Percentage damage SIDSP. The method, then: as §1, §2
Another assay concerns SINAR Sinapis arvensis. As to the kind of experiment: Post-emergence crop and weed test (Example 15). The note with it: Mutarda arvensis, 360 h, after 15 days, read-out: Percentage damage SINAR. The procedure: as §1, §2
The test system of the next assay is VERPE Veronica persica. As to the kind of experiment: Post-emergence crop and weed test (Example 15). To be noted: 360 h, after 15 days, read-out: Percentage damage VERPE. The procedure: as §1, §2
The subject of assay [5] is XANST Xanthium strumarium. As to the kind of experiment: Post-emergence crop and weed test (Example 15). To be noted: 360 h, after 15 days, read-out: Percentage damage XANST. The method, then:
as §1, §2

For assay [6], the system named is Alopecurus myosuroides (ALOMY). As to the kind of experiment: Pre-emergence biological efficacy (Example 13). The note with it: pre-emergence, 1,000 g/ha, after 13 days; for pest or weed control at 1000 g/ha: Alopecurus myosuroides, 312 h, read-out: Percentage damage ALOMY. The method, then: (§3) Seeds of Alopecurus myosuroides (ALOMY), Setaria faberi (SETFA), Echinochloa crus-galli (ECHCG), Solanum nigrum (SOLNI), Amaranthus retroflexus (AMARE) and Ipomea hederaceae (IPOHE) were sown in standard soil in pots. After cultivation for one day under controlled conditions in a glasshouse (at 24/16° C., day/night; 14 hours light; 65% humidity), the plants were sprayed with an aqueous spray solution derived from the formulation of the technical active ingredient in acetone/water (50:50) solution containing 0.5% Tween 20 (polyoxyethylene sorbitan monolaurate, CAS RN 9005-64-5) to give a final dose of 250 or 1000g/ha of test compound. The test plants were then grown under controlled conditions in the glasshouse (at 24/16° C., day/night; 14 hours light; 65% humidity) and watered twice daily. After 13 days the test was evaluated (100 =total damage to plant; 0 =no damage to plant).

The test system of assay [7] is Amaranthus retroflexus (AMARE). As to the kind of experiment: Pre-emergence biological efficacy (Example 13). The note with it: pre-emergence, 1,000 g/ha, after 13 days; for pest or weed control at 1000 g/ha: Amaranthus retroflexus, 312 h, read-out: Percentage damage AMARE. The procedure: as §3
Assay [8] relates to Echinochloa crus-galli (ECHCG). As to the kind of experiment: Pre-emergence biological efficacy (Example 13). The note with it: pre-emergence, 1,000 g/ha, after 13 days; for pest or weed control at 1000 g/ha: Echinochloa crus-galli, 312 h, read-out: Percentage damage ECHCG. The procedure:
as §3

The subject of assay [9] is Ipomea hederaceae (IPOHE). As to the kind of experiment: Pre-emergence biological efficacy (Example 13). To be noted: pre-emergence, 1,000 g/ha, after 13 days; for pest or weed control at 1000 g/ha: Ipomoea hederacea, 312 h, read-out: Percentage damage IPOHE. The procedure: as §3
For assay [10], the system named is Setaria faberi (SETFA). As to the kind of experiment: Pre-emergence biological efficacy (Example 13). The note with it: pre-emergence, 1,000 g/ha, after 13 days; for pest or weed control at 1000 g/ha: Setaria faberi, 312 h, read-out: Percentage damage SETFA. The method, then: as §3
The subject of assay [11] is Solanum nigrum (SOLNI). As to the kind of experiment: Pre-emergence biological efficacy (Example 13). To be noted: pre-emergence, 1,000 g/ha, after 13 days; for pest or weed control at 1000 g/ha: Solanum nigrum, 312 h, read-out: Percentage damage SOLNI. The procedure: as §3
Assay [12] concerns Alopecurus myosuroides (ALOMY). As to the kind of experiment: Post-emergence biological efficacy (Example 14). The note with it: post-emergence, 1,000 g/ha, after 13 days; for pest or weed control at 1000 g/ha: Alopecurus myosuroides, 312 h, read-out: Percentage damage ALOMY. The method, then:
as §3, with “for 8 days” for “for one day”, “or 1000 g/ha” for “or 1000g/ha”, “grown on” for “grown”, “in a” for “in the”, “evaluated (100=total” for “evaluated (100 =total”, “plant; 0=no” for “plant; 0 =no”

Assay [13] concerns Amaranthus retroflexus (AMARE). As to the kind of experiment: Post-emergence biological efficacy (Example 14). To be noted: post-emergence, 1,000 g/ha, after 13 days; for pest or weed control at 1000 g/ha: Amaranthus retroflexus, 312 h, read-out: Percentage damage AMARE. The procedure: as §3, with “for 8 days” for “for one day”, “or 1000 g/ha” for “or 1000g/ha”, “grown on” for “grown”, “in a” for “in the”, “evaluated (100=total” for “evaluated (100 =total”, “plant; 0=no” for “plant; 0 =no”

The subject of assay [14] is Echinochloa crus-galli (ECHCG). As to the kind of experiment: Post-emergence biological efficacy (Example 14). The note with it: post-emergence, 1,000 g/ha, after 13 days; for pest or weed control at 1000 g/ha: Echinochloa crus-galli, 312 h, read-out: Percentage damage ECHCG. The procedure:
as §3, with “for 8 days” for “for one day”, “or 1000 g/ha” for “or 1000g/ha”, “grown on” for “grown”, “in a” for “in the”, “evaluated (100=total” for “evaluated (100 =total”, “plant; 0=no” for “plant; 0 =no”

For assay [15], the system named is Ipomea hederaceae (IPOHE). As to the kind of experiment: Post-emergence biological efficacy (Example 14). To be noted: post-emergence, 1,000 g/ha, after 13 days; for pest or weed control at 1000 g/ha: Ipomoea hederacea, 312 h, read-out: Percentage damage IPOHE. The method, then:
as §3, with “for 8 days” for “for one day”, “or 1000 g/ha” for “or 1000g/ha”, “grown on” for “grown”, “in a” for “in the”, “evaluated (100=total” for “evaluated (100 =total”, “plant; 0=no” for “plant; 0 =no”

Assay [16] deals with Setaria faberi (SETFA). As to the kind of experiment: Post-emergence biological efficacy (Example 14). To be noted: post-emergence, 1,000 g/ha, after 13 days; for pest or weed control at 1000 g/ha: Setaria faberi, 312 h, read-out: Percentage damage SETFA. The procedure: as §3, with “for 8 days” for “for one day”, “or 1000 g/ha” for “or 1000g/ha”, “grown on” for “grown”, “in a” for “in the”, “evaluated (100=total” for “evaluated (100 =total”, “plant; 0=no” for “plant; 0 =no”

In assay [17] the test system is Solanum nigrum (SOLNI). As to the kind of experiment: Post-emergence biological efficacy (Example 14). The note with it: post-emergence, 1,000 g/ha, after 13 days; for pest or weed control at 1000 g/ha: Solanum nigrum, 312 h, read-out: Percentage damage SOLNI. The procedure:
as §3, with “for 8 days” for “for one day”, “or 1000 g/ha” for “or 1000g/ha”, “grown on” for “grown”, “in a” for “in the”, “evaluated (100=total” for “evaluated (100 =total”, “plant; 0=no” for “plant; 0 =no”

Experimental findings from patent publication US20120115724A1, “METHOD OF CONTROLLING UNDESIRED VEGETATION” (SYNGENTA CROP PROTECTION LLC, priority 2009, published 2012) are described below.

For `C=Cc1c(N)nc(-c2ccc(Cl)c(F)c2)nc1C(=O)OC` [Compound 9, 4-Amino-2-(4-chloro-3-fluorophenyl)-5-ethenyl-6-methoxycarbonyl-pyrimidine], the pest or weed control at 125 g/ha was found to be 80% in [1] (125 g/ha); 100% in assay [2] (125 g/ha); 90% in the assay on CHEAL Chenopodium album (125 g/ha); 80% in assay [3] (125 g/ha); 80% with IPOHE Ipomoea hederacea (125 g/ha); 90% in the assay on KCHSC Kochia scoparia (125 g/ha). Also, the pest or weed control at 125 g/ha in assay [4] (125 g/ha) was 70%; with SIDSP Sida spinosa (125 g/ha), 80%; in the assay with SINAR Sinapis arvensis (125 g/ha) it was 80%; in the assay with VERPE Veronica persica (125 g/ha), 80%; in assay [5] (125 g/ha), 100%. Further, the plant injury at 125 g/ha in the assay on GLXMA Soybean (125 g/ha) was 0%.

Consider `C=Cc1c(N)nc(-c2ccc(Cl)cc2F)nc1C(=O)OC` [Compound 10, 4-Amino-2-(4-chloro-2-fluorophenyl)-5-ethenyl-6-methoxycarbonyl-pyrimidine], for which the pest or weed control at 15 g/ha turned out to be 90% in assay [1] (15 g/ha); 50% in assay [2] (15 g/ha); 80% in the assay on CHEAL Chenopodium album (15 g/ha); 50% in assay [3] (15 g/ha); 70% in the assay on IPOHE Ipomoea hederacea (15 g/ha); 30% in the assay with KCHSC Kochia scoparia (15 g/ha). Also, the pest or weed control at 15 g/ha in [4] (15 g/ha) was 70%; in the assay with SIDSP Sida spinosa (15 g/ha), 50%; in the assay with SINAR Sinapis arvensis (15 g/ha) it was 80%; in the assay with VERPE Veronica persica (15 g/ha), 10%; in assay [5] (15 g/ha) it was 70%. The plant injury at 15 g/ha in the assay with GLXMA Soybean (15 g/ha) is 0%.

As for `C=Cc1c(N)nc(-c2ccc(Cl)c(N(C)C)c2F)nc1C(=O)OCCOCCCC` [Compound 46, 4-Amino-6-(2- ^nbutoxy-ethoxy)carbonyl-2-(4-chloro-3-dimethylamino-2-fluorophenyl)-5-ethenyl-pyrimidine], the “Percentage damage ALOMY” value in assay [6] and in [12] was 80% each time. The “Percentage damage AMARE” value in [7] and in assay [13] was 100% throughout. Also, the figures for the “Percentage damage ECHCG” value in [8] and in assay [14] were 100% and 90%, respectively. The “Percentage damage IPOHE” value came to 50% in assay [9] and 80% in assay [15]. Moreover, the “Percentage damage SETFA” value in the assay on Setaria faberi (SETFA) [10] and in the assay on Setaria faberi (SETFA) [16] was 90% in each case. In addition, the “Percentage damage SOLNI” value in the assay with Solanum nigrum (SOLNI) [11] turned out to be 100%; in the assay on Solanum nigrum (SOLNI) [17], 90%.

Consider `C=Cc1c(NCc2ccco2)nc(-c2ccc(Cl)c(OC)c2F)nc1C(=O)OCc1ccccc1` [Compound 47, 2-(4-Chloro-2-fluoro-3-methoxyphenyl)-5-ethenyl-4-(furan-2-ylmethylamino)-6-phenylmethoxy-carbonyl-pyrimidine], for which the pest or weed control at 1000 g/ha in assay [6] was determined as 30%; in assay [7] it was 70%; in assay [8] it was 90%; in assay [9] it was 80%; in the assay with Setaria faberi (SETFA) [10] it was 50%; in the assay on Solanum nigrum (SOLNI) [11] it was 80%. The pest or weed control at 1000 g/ha in assay [12] stood at 60%; in assay [13] it was 100%; in [14], 80%; in [15], 80%; in the assay with Setaria faberi (SETFA) [16], 80%; in the assay on Solanum nigrum (SOLNI) [17] it was 80%.

In the case of `C=Cc1c(NCc2ccco2)nc(-c2ccc(Cl)c(OC)c2F)nc1C(=O)OCCOCC` [Compound 48, 2-(4-Chloro-2-fluoro-3-methoxyphenyl)-5-ethenyl-6-(2-ethoxy-ethoxy)carbonyl-4-(furan-2-ylmethylamino)-pyrimidine], the pest or weed control at 1000 g/ha (in assay [6]; in assay [7]; in assay [8]; in assay [9]; in the assay with Setaria faberi (SETFA) [10]; with Solanum nigrum (SOLNI) [11]) was 0% throughout. The pest or weed control at 1000 g/ha in assay [12] amounted to 0%; in [13], 40%; in [14] it was 0%; in assay [15], 60%; in the assay with Setaria faberi (SETFA) [16], 0%; in the assay with Solanum nigrum (SOLNI) [17] it was 50%.
